Patent publication US6465631B1, “Lipid a 4′ kinase” (Duke University, priority 1997, dated 2002)

Target: T1, lipid A 4′ kinase (Escherichia coli, UniProt P27300)
T1 construct: The first primer introduces a Nde I site at the start codon of orfE, and the second primer introduces a BamHl site downstream of the stop codon; made in house; host or cells: E. coli BLR(DE3)pLysS/pJK2 (pET3a, T7 promoter); Controls with chromosomal kinase only: BR7 membranes and BLR(DE3)pLysS/pET3a fractions
Test: 4′ kinase assay method II ([γ-32P]ATP donor, lipid acceptor, TLC)
Type: biochemical, E. coli
Conditions: for utilisation as substrate of the 4′ kinase (in words): recombinant, overexpressed 4′ kinase (BLR(DE3)pLysS/pJK2 membranes); for 32P from input [γ-32P]-ATP incorporated into 4′-phosphorylated product (yield): 0.6 μM [γ-32P]ATP, 100 μM lipid acceptor, 10 min, 30° C.
Protocol: FIG. 12: Effective phosphorylation of DS-1-P and DS-1-P analogs with recombinant, overproduced 4′ kinase. Washed membranes from strain BR7 and BLR(DE3)pLysS/pJK2 were used, as indicated, in 4′ kinase assays containing 100 μM of the indicated DS-1-P analog, 0.6 μM [γ-^32P] ATP, 50 mM Tris, pH 8.5, 5 mM MgCl2, 1% NP-40, 1 mg/ml cardiolipin and 0.5 mg/ml washed membranes. After a 10 minute incubation at 30° C., 5 μl of the reaction was spotted onto a Silica Gel 60 TLC plate and developed in chloroform:pyridine:formic acid:water (30:70:16:10 v/v). The plate was dried, exposed to a PhosphorImager screen and visualized using ImageQuant software. Arrows indicate the products of the reactions. If the native substrate DS-1-P is present in the reaction, [4′-^32P]-lipid IVA is formed. When 3-aza-DS-1-P, base-treated DS-1-P, or base-treated 3-aza-DS-1-P are present, 4′ phosphorylated products a, b and c are formed, respectively. The migration of each of these products is slower than the non-phosphorylated substrate analog, consistent with the phosphate incorporation. As in FIG. 9, BLR/pJK2 is an abbreviation for BLR(DE3)pLysS/pJK2, and NE indicates the no enzyme control. […] Minor ^32P containing lipids generated by membranes of BLR(DE3)pLysS/pJK2 in the absence of any acceptor substrate arise by the action of diglyceride kinase on endogenous glycerophospholipids (see especially Lane 6). The diglyceride kinase is inactivated by mutation in strain BR7 (Hampton et al, Methods in Enzymology 209:466 (1992)).
Assays for 4′ kinase activity. Two methods for analyzing 4′ kinase activity of various protein fractions were employed. The first (method I) utilizes DS-1-^32P as the labeled substrate. Typically, 100 μM DS-1-^32P (1000 cpm/nmol), 1 mg/ml cardiolipin, 50 mM Tris, pH 8.5, 5 mM ATP, 1% NP-40, and 5 mM MgCl2 are mixed with 0.5-500 μg/ml protein fraction and incubated at 30° C. for various times. Reactions were stopped by spotting a portion of the reaction onto a Silica Gel 60 thin layer chromatography plate. Plates were developed in chloroform:methanol:water:acetic acid (25:15:4:2, v/v) and analyzed as described above. Method II (which is not intended for the quantitative determination of specific activities) utilizes [γ-^32P] ATP (˜8×10^6 cpm/nmol) as the labeled substrate. The reaction conditions are exactly the same as for method I except that the ATP concentration is lowered to 0.6 μM and only non-radioactive DS-1-P (final concentration of 100 μM) is added. The reactions were stopped as described above, and plates were developed in chloroform:pyridine:formic acid:water (30:70:16:10, v/v).
Each lipid analog was tested as a 4′ kinase substrate using recombinant, overexpressed 4′ kinase in conjunction with the method II assay conditions (0.6 μM [γ-^32P]-ATP as the phosphate donor and 100 μM lipid acceptor). DS-1-P becomes phosphorylated to form [4′-^32P]-lipid IVA by BR7 membranes (containing wild-type kinase levels), but only with a yield of ˜0.5% (FIG. 11, lane 2). When BLR(DE3)pLysS/pJK2 membranes are used (FIG. 12, lane 7) more than 50% of the ^32P is incorporated into [4′-^32P]-lipid IVA. […] Products (b) and (c) are formed from base-treated DS-1-P and base treated 3-aza-DS-1-P, respectively.

T1 sequence (P27300 whole entry): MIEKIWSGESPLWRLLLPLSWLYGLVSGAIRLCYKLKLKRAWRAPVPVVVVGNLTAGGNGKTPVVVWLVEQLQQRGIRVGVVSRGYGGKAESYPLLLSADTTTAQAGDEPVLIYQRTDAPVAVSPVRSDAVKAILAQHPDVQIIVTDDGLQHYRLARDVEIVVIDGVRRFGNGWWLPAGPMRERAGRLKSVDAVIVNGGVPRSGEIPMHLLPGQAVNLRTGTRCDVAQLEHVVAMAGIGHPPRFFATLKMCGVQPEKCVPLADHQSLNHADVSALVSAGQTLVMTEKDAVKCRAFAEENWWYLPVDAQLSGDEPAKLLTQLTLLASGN

Compound	utilisation as substrate of the 4′ kinase (in words)	32P from input [γ-32P]-ATP incorporated into 4′-phosphorylated product (yield) (BLR(DE3)pLysS/pJK2 membranes (recombinant, overexpressed 4′ kinase))	32P from input [γ-32P]-ATP incorporated into 4′-phosphorylated product (yield) (BR7 membranes (wild-type kinase levels))
2,3-diacyl-glucosamine-1-phosphate [Lipid X]	not substrates	–	–
CCCCCCCCCCC[C@@H](O)CC(=O)N[C@H]1[C@H](OC[C@H]2O[C@H](OP(=O)(O)O)[C@H](NC(=O)C[C@H](O)CCCCCCCCCCC)[C@@H](OC(=O)C[C@H](O)CCCCCCCCCCC)[C@@H]2O)O[C@H](CO)[C@@H](O)[C@@H]1OC(=O)C[C@H](O)CCCCCCCCCCC [DS-1-P, tetraacyldisaccharide-1-phosphate]	large amount	more than 50%	~0.5%
UDP-2,3-diacyl-glucosamine [UDP-diacylglucosamine]	not substrates	–	–
